{"source": "PubChem BioAssay (NCI)", "note": "Where “and” joins values, the source holds several entries; their conditions need not be identical. Equal entries are not always repeated.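 Assay format: 96-well plates, 48-hour exposure. GI50: concentration for 50% inhibition of growth. TGI: total growth inhibition.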"}
{"tested_on": "BT-549 breast", "assay": "growth of human tumour cells (NCI), 48 h", "units": {"GI50": "µM"}}
{"smiles": "CCOC(=O)N[C@H]1CCc2cc(OC)c(OC)c(OC)c2-c2ccc(SC)c(=O)cc21", "TGI": "33.2 µM and > 32.5 µM"}
{"smiles": "Cc1c(N(C)C)ccc2c(=O)c3cccc(CC(=O)O)c3oc12", "TGI": "> 100 µM"}
{"smiles": "CCC[CH2][Sn]([CH2]CCC)([O]C(=O)c1ccc(OC)c(OC)c1OC)[O][Sn]([CH2]CCC)([CH2]CCC)[O]C(=O)c1ccc(OC)c(OC)c1OC", "GI50": 0.241, "TGI": "1.15 µM"}
{"tested_on": "DLD-1 colon", "assay": "growth of human tumour cells (NCI), 48 h", "units": {"TGI": "µM", "GI50": "µM"}}
{"smiles": "COC(=O)C(=Cc1cc(OC)c(OC)c(OC)c1-c1cc2c(cc1C1(C)OCCS1)OCO2)C(=O)OC", "note": "(configuration not stated)", "TGI": "> 100"}
{"smiles": "COc1ccc(OCC(=O)O)c2c1CCCC2=O", "TGI": "> 100"}
{"smiles": "Cc1nc(Nc2ccc(Cl)cc2)sc1C(=O)NNC(=S)NN", "TGI": 30.7}
{"smiles": "CCOC(=O)N[C@H]1CCc2cc(OC)c(OC)c(OC)c2-c2ccc(SC)c(=O)cc21", "TGI": "> 100"}
{"smiles": "COc1ccc2c(c1OCC(=O)O)C(=O)C(CCC(=O)O)CC2", "note": "(configuration not stated)", "TGI": "> 100"}
{"smiles": "Cc1ccc2nc(/C(=C/c3ccc(/C=C(\\NC(=O)c4ccccc4)c4nc5ccc(C)cc5[nH]4)c(C)c3)NC(=O)c3ccccc3)[nH]c2c1", "TGI": "> 100"}
{"smiles": "O=C(Nc1cccc(Cl)c1)C(=O)C(C(=O)c1ccc2ccccc2c1)C1OC(=O)c2ccccc21", "note": "(configuration not stated)", "TGI": 32.7}
{"smiles": "N#CC(C(=O)/C(=N\\NC(N)=O)C(C#N)c1ccc(Cl)cc1)c1ccc(Cl)cc1", "note": "(configuration not stated)", "TGI": "> 100"}
{"smiles": "CSc1nc(SC)c2c(C#N)[nH]nc2n1", "TGI": "> 100"}
{"smiles": "COc1c(O)c2c(=O)cc3c4c5c(cc(=O)c6c(O)c(OC)c(CC(C)O)c(c(c1CC(C)O)c24)c65)OCO3", "note": "(configuration not stated)", "TGI": 8.39}
{"smiles": "COc1ccc(CCN(C)C2CCC(C#N)(c3ccc(OC)c(OC)c3)CC2)cc1OC", "note": "(configuration not stated)", "TGI": "> 100"}
{"smiles": "Cc1c(N(C)C)ccc2c(=O)c3cccc(CC(=O)O)c3oc12", "TGI": "> 100"}
{"smiles": "C/C(CC(=O)Nc1ccc(C)c(C)c1)=N\\N(c1ccccc1)c1ccccc1", "TGI": "> 100"}
{"smiles": "COC(=O)/C(=N\\NC(N)=S)C(C(=O)OC)C(=O)C(=O)Nc1ccc(C)cc1", "note": "(configuration not stated)", "TGI": "> 100"}
{"smiles": "O=C(OC1CCC(=C2SCCCS2)[C@H]1C1SCCCS1)c1ccccc1", "note": "(some centres not stated)", "TGI": "> 100"}
{"smiles": "O=C1CCC2(c3ccc(Cl)cc3)Nc3cc(Cl)ccc3N12", "note": "(configuration not stated)", "TGI": 20}
{"smiles": "CN(C)CCC(/C=C/c1ccccc1)=N\\Nc1ccccc1", "TGI": 12.5}
{"smiles": "C/C(N=NC(=S)N1CC2CCC(CC2)C1)=C1\\C=CC=CN1O", "TGI": "> 100"}
{"smiles": "CCOC(=O)c1ccc(/C(C)=N/NC(N)=S)cc1", "TGI": "> 100"}
{"smiles": "c1ccc2c(OCCSCCCCCCCCCCSCCOc3cccc4ccccc34)cccc2c1", "TGI": "> 100"}
{"smiles": "Cc1cc2c(=O)c3ccccc3[nH]c2c(C(N)=O)c1C", "TGI": "> 100"}
{"smiles": "CCC[CH2][Sn]([CH2]CCC)([O]C(=O)c1ccc(OC)c(OC)c1OC)[O][Sn]([CH2]CCC)([CH2]CCC)[O]C(=O)c1ccc(OC)c(OC)c1OC", "GI50": 0.147, "TGI": 0.419}
{"smiles": "CN1CCC(=O)/C(=C/c2ccccc2)C1", "TGI": 12.5}
{"tested_on": "DMS 273 small cell lung", "assay": "growth of human tumour cells (NCI), 48 h", "units": {"TGI": "µM", "GI50": "µM"}}
{"smiles": "COC(=O)C(=Cc1cc(OC)c(OC)c(OC)c1-c1cc2c(cc1C1(C)OCCS1)OCO2)C(=O)OC", "note": "(configuration not stated)", "TGI": 75.1}
{"smiles": "COc1ccc(OCC(=O)O)c2c1CCCC2=O", "TGI": "> 100"}
{"smiles": "Cc1nc(Nc2ccc(Cl)cc2)sc1C(=O)NNC(=S)NN", "TGI": 36.2}
{"smiles": "CCOC(=O)N[C@H]1CCc2cc(OC)c(OC)c(OC)c2-c2ccc(SC)c(=O)cc21", "TGI": "> 100"}
{"smiles": "COc1ccc2c(c1OCC(=O)O)C(=O)C(CCC(=O)O)CC2", "note": "(configuration not stated)", "TGI": "> 100"}
{"smiles": "Cc1ccc2nc(/C(=C/c3ccc(/C=C(\\NC(=O)c4ccccc4)c4nc5ccc(C)cc5[nH]4)c(C)c3)NC(=O)c3ccccc3)[nH]c2c1", "TGI": "> 100"}
{"smiles": "O=C(Nc1cccc(Cl)c1)C(=O)C(C(=O)c1ccc2ccccc2c1)C1OC(=O)c2ccccc21", "note": "(configuration not stated)", "TGI": 89.6}
{"smiles": "CSc1nc(SC)c2c(C#N)[nH]nc2n1", "TGI": "> 100"}
{"smiles": "COc1c(O)c2c(=O)cc3c4c5c(cc(=O)c6c(O)c(OC)c(CC(C)O)c(c(c1CC(C)O)c24)c65)OCO3", "note": "(configuration not stated)", "TGI": 3.26}
{"smiles": "COc1ccc(CCN(C)C2CCC(C#N)(c3ccc(OC)c(OC)c3)CC2)cc1OC", "note": "(configuration not stated)", "TGI": "> 100"}
{"smiles": "Cc1c(N(C)C)ccc2c(=O)c3cccc(CC(=O)O)c3oc12", "TGI": "> 100"}
{"smiles": "C/C(CC(=O)Nc1ccc(C)c(C)c1)=N\\N(c1ccccc1)c1ccccc1", "TGI": 33.5}
{"smiles": "COC(=O)/C(=N\\NC(N)=S)C(C(=O)OC)C(=O)C(=O)Nc1ccc(C)cc1", "note": "(configuration not stated)", "TGI": "> 100"}
{"smiles": "O=C(OC1CCC(=C2SCCCS2)[C@H]1C1SCCCS1)c1ccccc1", "note": "(some centres not stated)", "TGI": "> 100"}
{"smiles": "O=C1CCC2(c3ccc(Cl)cc3)Nc3cc(Cl)ccc3N12", "note": "(configuration not stated)", "TGI": 22.3}
{"smiles": "CC1(C)COC(c2cccc3c2C(=O)c2cccc(Cl)c2-3)=N1", "TGI": "> 100"}
{"smiles": "CN(C)CCC(/C=C/c1ccccc1)=N\\Nc1ccccc1", "TGI": 6.5}
{"smiles": "C/C(N=NC(=S)N1CC2CCC(CC2)C1)=C1\\C=CC=CN1O", "TGI": 24.2}
{"smiles": "CCOC(=O)c1ccc(/C(C)=N/NC(N)=S)cc1", "TGI": "> 100"}
{"smiles": "c1ccc2c(OCCSCCCCCCCCCCSCCOc3cccc4ccccc34)cccc2c1", "TGI": "> 100"}
{"smiles": "CCC[CH2][Sn]([CH2]CCC)([O]C(=O)c1ccc(OC)c(OC)c1OC)[O][Sn]([CH2]CCC)([CH2]CCC)[O]C(=O)c1ccc(OC)c(OC)c1OC", "GI50": 0.334, "TGI": 1.54}
{"smiles": "CN1CCC(=O)/C(=C/c2ccccc2)C1", "TGI": 14.9}
{"tested_on": "HOP-18 NSCLC", "assay": "growth of human tumour cells (NCI), 48 h", "units": {"TGI": "µM", "GI50": "µM"}}
{"smiles": "Cc1nc(Nc2ccc(Cl)cc2)sc1C(=O)NNC(=S)NN", "TGI": 33.5}
{"smiles": "CCOC(=O)N[C@H]1CCc2cc(OC)c(OC)c(OC)c2-c2ccc(SC)c(=O)cc21", "TGI": "> 100"}
{"smiles": "COc1ccc2c(c1OCC(=O)O)C(=O)C(CCC(=O)O)CC2", "note": "(configuration not stated)", "TGI": "> 100"}
{"smiles": "O=C(Nc1cccc(Cl)c1)C(=O)C(C(=O)c1ccc2ccccc2c1)C1OC(=O)c2ccccc21", "note": "(configuration not stated)", "TGI": 28.2}
{"smiles": "N#CC(C(=O)/C(=N\\NC(N)=O)C(C#N)c1ccc(Cl)cc1)c1ccc(Cl)cc1", "note": "(configuration not stated)", "TGI": "> 100"}
{"smiles": "COc1c(O)c2c(=O)cc3c4c5c(cc(=O)c6c(O)c(OC)c(CC(C)O)c(c(c1CC(C)O)c24)c65)OCO3", "note": "(configuration not stated)", "TGI": 8.3}
{"smiles": "COc1ccc(CCN(C)C2CCC(C#N)(c3ccc(OC)c(OC)c3)CC2)cc1OC", "note": "(configuration not stated)", "TGI": "> 100"}
{"smiles": "Cc1c(N(C)C)ccc2c(=O)c3cccc(CC(=O)O)c3oc12", "TGI": "> 100"}
{"smiles": "C/C(CC(=O)Nc1ccc(C)c(C)c1)=N\\N(c1ccccc1)c1ccccc1", "TGI": "> 100"}
{"smiles": "COC(=O)/C(=N\\NC(N)=S)C(C(=O)OC)C(=O)C(=O)Nc1ccc(C)cc1", "note": "(configuration not stated)", "TGI": "> 100"}
{"smiles": "O=C1CCC2(c3ccc(Cl)cc3)Nc3cc(Cl)ccc3N12", "note": "(configuration not stated)", "TGI": 14.6}
{"smiles": "CN(C)CCC(/C=C/c1ccccc1)=N\\Nc1ccccc1", "TGI": 16.6}
{"smiles": "C/C(N=NC(=S)N1CC2CCC(CC2)C1)=C1\\C=CC=CN1O", "TGI": "> 100"}
{"smiles": "CCOC(=O)c1ccc(/C(C)=N/NC(N)=S)cc1", "TGI": "> 100"}
{"smiles": "c1ccc2c(OCCSCCCCCCCCCCSCCOc3cccc4ccccc34)cccc2c1", "TGI": "> 100"}
{"smiles": "Cc1cc2c(=O)c3ccccc3[nH]c2c(C(N)=O)c1C", "TGI": "> 100"}
{"smiles": "CCC[CH2][Sn]([CH2]CCC)([O]C(=O)c1ccc(OC)c(OC)c1OC)[O][Sn]([CH2]CCC)([CH2]CCC)[O]C(=O)c1ccc(OC)c(OC)c1OC", "GI50": 0.27, "TGI": 0.473}
{"smiles": "CN1CCC(=O)/C(=C/c2ccccc2)C1", "TGI": 32.2}
{"tested_on": "KM20L2 colon", "assay": "growth of human tumour cells (NCI), 48 h", "units": {"TGI": "µM"}}
{"smiles": "COC(=O)C(=Cc1cc(OC)c(OC)c(OC)c1-c1cc2c(cc1C1(C)OCCS1)OCO2)C(=O)OC", "note": "(configuration not stated)", "TGI": "> 100"}
{"smiles": "Cc1nc(Nc2ccc(Cl)cc2)sc1C(=O)NNC(=S)NN", "TGI": 32.5}
